Patent US8324390B2, “Tetrazole-substituted anthranilamides as pesticides” (Bayer CropScience AG, priority 2008, dated 2012)
Where two headings read alike, the source gives them in different places.

Experiments:
[1] = log P determination by HPLC (EEC Directive 79/831 Annex V.A8); type: physicochemical
Method: The measurements were carried out using an Agilent 1100 LC system with a 50*4.6 Zorbax Eclipse C18 1.8 μm column (oven temperature 55° C., flow rate 2.0 ml/min).
The following mobile phases were used:
Mobile phase A: acetonitrile+1000 μl of formic acid/l
Mobile phase B: Millipore water+900 μl of formic acid/l

[2] = system: caterpillars of the armyworm (Spodoptera frugiperda); assay: Spodoptera frugiperda test (SPODFR spray treatment); type: in vivo; settings: Spodoptera frugiperda, foliar, read-out: effect in % (caterpillars killed)
From the text: (§1) Solvent: 78.0 parts by weight of acetone

[3] = system: green peach aphid (Myzus persicae); assay: Myzus test (MYZUPE spray treatment); type: in vivo; settings: for pest or weed control at 100 g/ha: Myzus persicae, foliar, read-out: effect in % (aphids killed); for Kill in %/7 days: 100 g/ha
From the text: Solvent: 78 parts by weight of acetone
as §1

[4] = system: larvae of the mustard beetle (Phaedon cochleariae); assay: Phaedon test (PHAECO spray treatment); settings: Phaedon cochleariae, in Brassica rapa, foliar, read-out: effect in % (beetle larvae killed)
[5] = reversed-phase HPLC, Zorbax Eclipse C18 column, determined by HPLC according to EEC Directive 79/831 Annex V.A8, read-out: log P
[6] = application rate 100 g/ha, maize leaf discs
[7] = application rate 100 g/ha, Chinese cabbage leaf discs
[8] = reversed-phase HPLC, Zorbax Eclipse C18 column, by HPLC according to EEC Directive 79/831 Annex V.A8, read-out: log P

| SMILES | pest or weed control at 100 g/ha [4] [%] | chromatographic logP ([1]; log P) | pest or weed control at 100 g/ha ([2]; in Zea mays) [%] | pest or weed control at 100 g/ha ([3]; in Brassica rapa) [%] | further results |
| --- | --- | --- | --- | --- | --- |
| CNC(=O)c1cc(C#N)cc(C)c1NC(=O)c1cc(Cn2nnnc2C(F)(F)F)nn1-c1ncccc1Br [Example 477] | ≥ 80 | – | – | – | chromatographic logP [1, 5]: 2.47; pest or weed control at 100 g/ha [2, 6]: ≥ 80%; pest or weed control at 100 g/ha [3, 7]: ≥ 80% |
| Cc1cc(Cl)cc(C(=O)NC(C)C)c1NC(=O)c1cc(Cn2nnc(C(F)(F)C(F)(F)F)n2)nn1-c1ncccc1Cl [Example 129] | ≥ 80 | 3.94 | ≥ 80 | ≥ 80 | – |
| CNC(=O)c1cc(C#N)cc(C)c1NC(=O)c1cc(Cn2nnc(C(F)(C(F)(F)F)C(F)(F)F)n2)nn1-c1ncccc1Cl [Example 367] | ≥ 80 | 3.35 | ≥ 80 | ≥ 80 | – |
| NC(=O)c1cc(Cl)cc(Cl)c1NC(=O)c1cc(Cn2nnc(C(F)(F)F)n2)nn1-c1ncccc1Cl [Example 55] | ≥ 80 | 2.72 | ≥ 80 | ≥ 80 | – |
| Cc1cc(I)cc(C(=O)NC2CC2)c1NC(=O)c1cc(Cn2nnc(C(F)(F)F)n2)nn1-c1ncccc1C(F)(F)F [Example 246] | ≥ 80 | – | – | – | pest or weed control at 100 g/ha [2, 6]: ≥ 80%; pest or weed control at 100 g/ha [3, 7]: ≥ 80% |
| Cc1cc(C#N)cc(C(=O)NCCC(F)(F)F)c1NC(=O)c1cc(Cn2nnnc2C(F)(F)F)nn1-c1ncccc1Cl [Example 188] | ≥ 80 | 2.88 | – | ≥ 80 | – |
| Cc1cc(I)cc(C(=O)NC(C)C2CC2)c1NC(=O)c1cc(Cn2nnc(C(F)F)n2)nn1-c1ncccc1Cl (stereo not drawn) [Example 274] | – | 3.52 | ≥ 80 | ≥ 80 | – |
| Cc1cc(C)c(NC(=O)c2cc(Cn3nnc(C(F)(F)F)n3)nn2-c2ncccc2Cl)c(C(=O)NC(C)C2CC2)c1 (stereo not drawn) [Example 82] | – | 3.59 | ≥ 80 | ≥ 80 | – |
| CNC(=O)c1cc(Cl)cc(C)c1NC(=O)c1cc(Cn2nnnc2C(F)(F)F)nn1-c1ncccc1Cl [drawing 605] | – | – | – | – | Kill in %/7 days [3]: 100% |
| CCNC(=O)c1cc(I)cc(C)c1NC(=O)c1cc(Cn2nnc(C(F)(F)F)n2)nn1-c1ncccc1C(F)(F)F [Example 241] | ≥ 80 | – | – | – | pest or weed control at 100 g/ha [2, 6]: ≥ 80%; pest or weed control at 100 g/ha [3, 7]: ≥ 80% |
| Cc1cc(C)c(NC(=O)c2cc(Cn3nnc(C(F)(F)F)n3)nn2-c2ncccc2Cl)c(C(N)=O)c1 [Example 80] | – | 2.62 | ≥ 80 | ≥ 80 | – |
| Cc1cc(C#N)cc(C(N)=O)c1NC(=O)c1cc(Cn2nnnc2C(F)(F)C(F)(F)F)nn1-c1ncccc1Br [Example 517] | ≥ 80 | – | – | – | chromatographic logP [1, 5]: 2.53; pest or weed control at 100 g/ha [3, 7]: ≥ 80% |
| CSC[C@H](C)NC(=O)c1cc(C#N)cc(C)c1NC(=O)c1cc(Cn2nnc(C(F)(F)F)n2)nn1-c1ncccc1Cl [Example 22] | – | – | – | ≥ 80 | log P [1]: 3.27 |
| Cc1cc(Cl)cc(C(N)=O)c1NC(=O)c1cc(Cn2nnc(C(F)(F)F)n2)nn1-c1ncccc1Cl [Example 16] | ≥ 80 | – | – | ≥ 80 | log P [1]: 2.77 |
| Cc1cc(I)cc(C(=O)NCC#N)c1NC(=O)c1cc(Cn2nnc(C(F)(F)F)n2)nn1-c1ncccc1C(F)(F)F [Example 240] | ≥ 80 | – | – | – | pest or weed control at 100 g/ha [2, 6]: ≥ 80%; pest or weed control at 100 g/ha [3, 7]: ≥ 80% |
| CNC(=O)c1cc(Cl)cc(C)c1NC(=O)c1cc(Cn2nnnc2-c2ccc(C(F)(F)F)cc2)nn1-c1ncccc1Cl [drawing 606] | – | – | – | – | Kill in %/7 days [3]: 80% |
| Cc1cc(C)c(NC(=O)c2cc(Cn3nnnc3C(F)(F)F)nn2-c2ncccc2Cl)c(C(=O)NC(C)C)c1 [Example 179] | – | 2.94 | ≥ 80 | ≥ 80 | – |
| Cc1cc(I)cc(C(=O)NC2CC2)c1NC(=O)c1cc(Cn2nnc(C(F)(F)C(F)(F)F)n2)nn1-c1ncccc1Cl [Example 217] | ≥ 80 | – | ≥ 80 | ≥ 80 | – |
| CNC(=O)c1cc(C#N)cc(C)c1NC(=O)c1cc(C(C)n2nnnc2C(F)(F)F)nn1-c1ncccc1Cl (stereo not drawn) [Example 512] | ≥ 80 | 2.53 | – | ≥ 80 | – |

| SMILES | pest or weed control at 100 g/ha [4] [%] | chromatographic logP ([1]; log P) | pest or weed control at 100 g/ha ([2]; in Zea mays) [%] | pest or weed control at 100 g/ha ([3]; in Brassica rapa) [%] | further results |
| --- | --- | --- | --- | --- | --- |
| Cc1cc(I)cc(C(=O)NC2CC2)c1NC(=O)c1cc(Cn2nnnc2C(F)(F)F)nn1-c1ncccc1C(F)(F)F [Example 456] | ≥ 80 | – | – | – | chromatographic logP [1, 5]: 3.31; pest or weed control at 100 g/ha [2, 6]: ≥ 80% |
| CCNC(=O)c1cc(C#N)cc(C)c1NC(=O)c1cc(Cn2nnc(C(F)(F)F)n2)nn1-c1ncccc1C(F)(F)F [Example 234] | ≥ 80 | – | – | – | chromatographic logP [1, 8]: 3.07; pest or weed control at 100 g/ha [2, 6]: ≥ 80% |
| O=C(NCC1CC1)c1cc(Cl)cc(Cl)c1NC(=O)c1cc(Cn2nnc(C(F)(C(F)(F)F)C(F)(F)F)n2)nn1-c1ncccc1Cl [Example 392] | ≥ 80 | – | – | – | chromatographic logP [1, 8]: 4.17; pest or weed control at 100 g/ha [2, 6]: ≥ 80% |
| CCNC(=O)c1cc(C)cc(C)c1NC(=O)c1cc(Cn2nnc(C(F)(F)F)n2)nn1-c1ncccc1Cl [Example 81] | – | 3.06 | ≥ 80 | ≥ 80 | – |
| Cc1cc(I)cc(C(=O)NC(C)C)c1NC(=O)c1cc(Cn2nnc(C(F)(F)C(F)(F)F)n2)nn1-c1ncccc1Cl [Example 142] | ≥ 80 | 4.19 | ≥ 80 | – | – |
| Cc1cc(Cl)cc(C(=O)NC(C)C)c1NC(=O)c1cc(Cn2nnc(C(F)(F)C(F)(F)F)n2)nn1-c1ncccc1Cl [drawing 603] | – | – | – | – | Kill in %/7 days [3]: 70% |
| Cc1cc(Cl)cc(C(=O)NC(C)(C)C)c1NC(=O)c1cc(Cn2nnc(C(F)(C(F)(F)F)C(F)(F)F)n2)nn1-c1ncccc1Cl [Example 362] | ≥ 80 | – | – | – | chromatographic logP [1, 8]: 4.56; pest or weed control at 100 g/ha [2, 6]: ≥ 80% |
| Cc1cc(I)cc(C(=O)NC2CC2)c1NC(=O)c1cc(Cn2nnc(C(F)(C(F)(F)F)C(F)(F)F)n2)nn1-c1ncccc1Cl [Example 379] | ≥ 80 | 4.18 | ≥ 80 | – | – |
| Cc1cc(C#N)cc(C(=O)NC(C)C)c1NC(=O)c1cc(Cn2nnnc2C(F)(F)C(F)(F)F)nn1-c1ncccc1Cl [Example 202] | ≥ 80 | 3.14 | ≥ 80 | – | – |
| Cc1cc(C)c(NC(=O)c2cc(Cn3nnc(C(F)(F)F)n3)nn2-c2ncccc2Cl)c(C(=O)NCC#N)c1 [Example 85] | ≥ 80 | 2.83 | ≥ 80 | – | – |
| Cc1cc(Cl)cc(C(=O)NCC#N)c1NC(=O)c1cc(Cn2nnc(C(F)(C(F)(F)F)C(F)(F)F)n2)nn1-c1ncccc1Cl [Example 358] | ≥ 80 | 3.62 | ≥ 80 | – | – |
| Cc1cc(C#N)cc(C(=O)NC2CCC2)c1NC(=O)c1cc(Cn2nnc(C(F)(F)C(F)(F)F)n2)nn1-c1ncccc1Cl [Example 139] | ≥ 80 | 3.61 | ≥ 80 | – | – |
| Cc1cc(Cl)cc(C(=O)NC(C)C)c1NC(=O)c1cc(Cn2nnc(C(F)(F)C(F)(F)C(F)(F)F)n2)nn1-c1ncccc1Cl [Example 1, 2-(3-chloropyridin-2-yl)-5-(5-heptafluoropropyltetrazol-2-ylmethyl)-2H-pyrazole-3-carboxylic acid (4-chloro-2-isopropylcarbamoyl-6-methylphenyl)amide] | ≥ 80 | – | ≥ 80 | – | chromatographic logP ([1]; HPLC, acetonitrile/water with formic acid, read-out: log P): 4.23 |
| CNC(=O)c1cc(C#N)cc(C)c1NC(=O)c1cc(Cn2nnc(C(F)(F)F)n2)nn1-c1cccc(Cl)c1Cl [Example 327] | ≥ 80 | – | – | – | chromatographic logP [1, 8]: 3.4; pest or weed control at 100 g/ha [2, 6]: ≥ 80% |
| Cc1cc(I)cc(C(N)=O)c1NC(=O)c1cc(Cn2nnc(C(F)(F)F)n2)nn1-c1ncccc1C(F)(F)F [Example 250] | ≥ 80 | – | – | – | chromatographic logP [1, 8]: 3.16; pest or weed control at 100 g/ha [2, 6]: ≥ 80% |
| Cc1cc(Cl)cc(C(=O)NC(C)(C)C)c1NC(=O)c1cc(Cn2nnc(C(F)F)n2)nn1-c1ncccc1Cl [Example 258] | ≥ 80 | 3.32 | ≥ 80 | – | – |
| Cc1cc(I)cc(C(=O)NC(C)C)c1NC(=O)c1cc(Cn2nnc(C(F)(F)F)n2)nn1-c1ncccc1Cl [Example 71] | ≥ 80 | 3.73 | ≥ 80 | – | – |
| CCNC(=O)c1cc(Br)cc(C)c1NC(=O)c1cc(Cn2nnc(C(F)(F)F)n2)nn1-c1ncccc1C(F)(F)F [Example 244] | ≥ 80 | – | – | – | chromatographic logP [1, 8]: 3.52; pest or weed control at 100 g/ha [2, 6]: ≥ 80% |
| CC(C)(C)NC(=O)c1cc(Cl)cc(Cl)c1NC(=O)c1cc(Cn2nnc(C(F)F)n2)nn1-c1ncccc1Cl [Example 287] | ≥ 80 | 3.28 | ≥ 80 | – | – |
